Experimental data reported in paper PMC6270814, “Effects of Ursolic Acid Derivatives on Caco-2 Cells and Their Alleviating Role in Streptozocin-Induced Type 2 Diabetic Rats” (Molecules, 2014).

What was measured:
[1] = MTT cytotoxicity assay on Caco-2 cells; type: cell-based, Human; conditions: human
Procedure: (§1) Human intestinal Caco-2 cells (ATCC, Rockville, MD, USA) were incubated at 37 °C in a humidified atmosphere of 5% CO2 in air. The cells were cultured in Dulbecco’s […] medium (DMEM) with 10% heat-inactivated fetal bovine serum, 1% non-essential amino acids, 1% L-glutamine, 1% penicillin/streptomycin (Gibco Life Technologies, Grand Island, NY, USA). The cells were sub-cultured at confluence by 0.05% trypsin-0.5 mM EDTA treatment before they were applied in the experiment.
(§2) A MTT test was conducted to determine the possible toxicity of UA and its derivatives to Caco-2 cells. Briefly, cells were seeded at a density of 1 × 10^4 cells/mL in a 96-well plate and incubated for 24 h. The next day, cells were incubated with vehicle (0.1% DMSO) and compounds at 100, 50, 25, 12.5 μmol/L for 24 h, and then 5 g/L MTT solution (20 μL) was added for 4 h. Absorbance at 570 nm was measured using a Multimodel Plate Reader (Infinite 200, Tecan, Mannedorf, Switzerland).

Caco-2 cells [2] = experiment: MTT cytotoxicity assay on Caco-2 cells; type: cell-based, Human; conditions: Homo sapiens, 24 h, mean ± SD, n = 4, read-out: Inhibition Rate %
Procedure: as §1, §2

[3] = test system: STZ-induced diabetic rats; experiment: Body weight and daily food intake of STZ-induced diabetic rats; type: in vivo, rat; conditions: compounds 100 mg/kg, glibenclamide 10 mg/kg, oral
Procedure: (§3) Diabetes was induced by a single intraperitoneal injection of streptozotocin (Sigma-Aldrich, St. Louis, MO, USA) at a dose of 65 mg/kg body weight. STZ was dissolved in 0.1 M cold citrate buffer, pH 4.5. Control group were injected with citrate buffer alone. After 7 days for the development of diabetes, plasma glucose levels were determined of each rat. Rats with fasting blood glucose (FBG) range of above 16.7 mmol/L were considered as DM rats and were used for further study.
(§4) According to the body weight and plasma glucose levels the rats were divided randomly into seven groups with six rats each and treated as follows: • Group I: Normal rats treated with 0.5% CMC-Na (2 mL/200 g body weight). • Group II: Diabetic rats treated with 0.5% CMC-Na. • Group III: Diabetic rats treated with 10 mg/kg of glibenclamide. • Group IV: Diabetic rats treated with 100 mg/kg of compound 1 (UA). • Group V: Diabetic rats treated with 100 mg/kg of compound 10. • Group VI: Diabetic rats treated with 100 mg/kg of compound 11. • Group VII: Diabetic rats treated with 100 mg/kg of compound 12.
(§5) The treatment was continued daily for 28 days. Blood glucose levels and body weight were measured every week to ascertain the status of diabetes. After 4 weeks of treatment, the animals were fasted for 12 h and sacrificed by cervical dislocation under mild anaesthetization, blood was collected into heparinized tubes and centrifuged at 2,000 rpm for 10 min. Livers and kidneys were removed, washed and homogenized in ice-cold normal saline. This homogenates were centrifuged at 3,000 rpm for 10 min at 4 °C, and the supernatants were collected for the estimate of antioxidant markers.

[4] = test system: STZ-induced diabetic rats; experiment: Serum lipid profile (TG, TC, LDL-C, HDL-C) in STZ-induced diabetic rats; type: in vivo, rat; conditions: 4 weeks, compounds 100 mg/kg, glibenclamide 10 mg/kg
Procedure: as §3, §4, §5
(§6) Fasting blood glucose levels were estimated on days 0, 7, 14, 28 with the single touch glucometer (Life Scan, Johnson & Johnson Company, New Brunswick, NJ, USA). Serum insulin level was measured by use of a commercial immunoassay kit by enzyme linked immunosorbent assay (Uscn. Life Science Inc., Wuhan, China). Serum total protein, albumin, triglycerides (TG), total cholesterol (TC), high-density lipoprotein cholesterol (HDL-C), and low-density lipoprotein cholesterol (LDL-C) were measured with an automatic biochemical analyzer (Sinnowa D240, Nanjing, China).

[5] = test system: STZ-induced diabetic rats; experiment: Oxidative stress markers (GSH, SOD, MDA) in liver and kidney of STZ-induced diabetic rats; type: in vivo, rat; conditions: 4 weeks
Procedure: as §3, §4, §5
The tissue homogenates of liver and kidney were used for the estimate of antioxidant markers. Glutathione (GSH) level was measured with 5, 5'-dithiobis-(2-nitrobenzoic acid) (DTNB) as described by Sedlak and Lindsay. Superoxide dismutase (SOD) activity was assessed according to the method of Sinha. Malondialdehyde (MDA) activity was estimated with the thiobarbituric acid method.

GLUT-2 = experiment: Western blot of GLUT-2 protein expression in Caco-2 cells; type: cell-based, Human; conditions: 100 μM, 6 h
Procedure: Caco-2 cells were cultured on 6-well plates at a density of 1 × 10^6 cells/well for 13 days. The cells were placed in serum-free medium for 24 h prior to the treatment. Then UA and its derivatives (100 μM) were added, after 6 h incubation, the cells were immediately washed three times with ice-cold PBS and lysed in 200 μL lysis buffer. Cells were allowed to lyse on ice, and then scraped, vortexed, sonicated and stored at −80 °C for further analysis. Protein concentrations were determined as described and cell lysate was subjected to western blot analysis. Briefly, proteins with same amount were denatured in sample buffer, separated on 8% SDS-PAGE gel, and transferred onto a polyvinylidene diflouride membrane. The membranes were blocked for 1 h at 37 °C with 10% defatted milk in Tris-buffered saline (10 mM Tris-HCl, pH 7.5 and 137 mM NaCl) containing 0.05% Tween 20 (TBST). Membranes were then incubated overnight at 4 °C in blocking buffer with antibodies for GLUT-2, SGLT-1 and β-actin (EMD, Millipore, Billerica, MA, USA). Membranes were washed with TBST and incubated 1 h with appropriate secondary antibodies. Revelation was performed by using the enhanced chemiluminescence reagent and blue-light sensitive film. Densitometric analysis of films was performed with a Hewlett-Packard scanner equipped with a transparent adaptor and UN-SCAN-IT software.

[6] = test system: STZ-induced diabetic rats; experiment: Serum biochemical parameters (insulin, total protein, albumin) in STZ-induced diabetic rats; type: in vivo, rat; conditions: 4 weeks, compounds 100 mg/kg, glibenclamide 10 mg/kg
Procedure: as §3, §4, §5, §6

Caco-2 cells [7] = experiment: 2-NBDG glucose uptake by Caco-2 cell monolayers, Na+-independent (sodium free buffer); type: cell-based, Human; conditions: 100 μM compound, Na+-independent (KCl/K2HPO4 buffer)
Procedure: Caco-2 cells, which were derived from human colon adenocarcinoma, were selected for intestinal absorption studies because these cells express the morphological characteristics and most of the functional properties of differentiated small-intestinal enterocytes. Caco-2 cells were seeded on 24-well plates at the density of 2 × 10^5 cells/well. The medium was changed every 1–2 days, and the culture was carried out for 13 days. Then Caco-2 cells were placed in serum-free media for 24 h and then they were washed twice with Hanks’ balanced salt solution (HBSS, pH 7.5, 140 mM NaCl, 5 mM KCl, 1.2 mM Na2HPO4, 2 mM CaCl2, 1.2 mM MgSO4, 20 mM HEPES, 0.2% bovine serum albumin) before the uptake studies. When a sodium free buffer was required, NaCl and Na2HPO4 were replaced with equal amounts of KCl and K2HPO4, respectively. After washing, the cells were incubated for 15 min at room temperature in HBSS before the commencement of this experiment. The uptake studies were initiated by adding HBSS containing either control or test solution (100 μM) and […] (100 μM) for 30 min at 37 °C. Glucose uptake was stopped by adding twofold volume of ice-cold PBS and the wells were washed with ice-cold PBS three times. Fluorescent intensity was measured by a Multimodel Plate Reader (Tecan Infinity 200) with the 485 nmex and 535 nmemiss filter set before and after adding 2-NBDG. Then the cells were lysed in 200 μL lysis buffer (10 mM Tris-HCl pH = 7.4, 150 mM NaCl, 1% Triton-x-100, 1 mM EDTA, 0.1% SDS) and supplemented immediately before they were processed with 10 μg/mL PMSF. Cells were allowed to lyse on ice, and then vortexed and sonicated. The lysate was used for protein determination, protein concentrations were determined as described by BCA kit (Boster, Wuhan, China) with bovine serum albumin as standard.

[8] = test system: STZ-induced diabetic rats; experiment: Fasting blood glucose in STZ-induced diabetic rats, 4 weeks treatment; type: in vivo, rat; conditions: STZ diabetic rats
Procedure: Adult male albino rats of Sprague-Dawley rats (180–220 g) were obtained from the Guangdong Medical Lab Animal Center, and maintained under standard laboratory conditions in a temperature (25–30 °C) and light-controlled (12-h light/dark cycle) room with 35%–60% humidity. The animals were acclimatized for 10 days before the experiments and provided with rodent chow and water ad libitum. The investigation was conducted in accordance with the Guide for the Care and Use of Laboratory Animals and approved by the institutional Animal Ethics Committee.
as §3, §4, §5, §6

SMILES	viability at 24 h, 100 µM [1] [%]	inhibition at 100 µM (Caco-2 cells [2]) [%]	daily food intake vs untreated diabetic rats [3]	serum TC level vs diabetic control [4]	serum TG level vs diabetic control [4]	GSH level in kidney ([5]; kidney of STZ diabetic rats)	SOD level in the liver and kidney ([5]; liver and kidney of STZ diabetic rats)	effect on expression of protein GLUT-2 (GLUT-2)	serum albumin level vs diabetic control [6]	serum insulin level vs diabetic control [6]	serum total protein level vs diabetic control [6]	glucose uptake, % of the control value (Na+-independent) (Caco-2 cells [7])	effect on lowering fasting blood glucose levels ([8]; 100 mg/kg, 4 weeks)	Fasting Blood Glucose Level, Week 0 ([8]; Week 0 (before treatment), compounds 100 mg/kg, glibenclamide 10 mg/kg, n = 6) [mg/dL]	Fasting Blood Glucose Level, Week 1 ([8]; Week 1, compounds 100 mg/kg, glibenclamide 10 mg/kg daily, n = 6) [mg/dL]	Fasting Blood Glucose Level, Week 2 ([8]; Week 2, compounds 100 mg/kg, glibenclamide 10 mg/kg daily, n = 6) [mg/dL]	Fasting Blood Glucose Level, Week 3 ([8]; Week 3, compounds 100 mg/kg, glibenclamide 10 mg/kg daily, n = 6) [mg/dL]	Fasting Blood Glucose Level, Week 4 ([8]; Week 4, compounds 100 mg/kg, glibenclamide 10 mg/kg daily, n = 6) [mg/dL]
CC(=O)O[C@H]1CC[C@@]2(C)C(CC[C@]3(C)C2CC=C2C4[C@@H](C)[C@H](C)CC[C@]4(C(=O)Nc4ccccc4F)CC[C@]23C)C1(C)C (stereo partly shown) [Compound 6]	86.1	13.9 ± 4.52																
CCCC(=O)O[C@H]1CC[C@@]2(C)C(CC[C@]3(C)C2CC=C2C4[C@@H](C)[C@H](C)CC[C@]4(C(=O)O)CC[C@]23C)C1(C)C (stereo partly shown) [Compound 11]		2.29 ± 6.08	reduce daily food intake significantly	significantly decreased	significantly decreased	great effect	great improvement	significant effects on reducing	no appreciable improvement	non-significant effect	no appreciable improvement	74 % of the control value	no significant effect	318.60 ± 17.64	365.40 ± 20.34	352.80 ± 27.36	324.00 ± 23.04	351.00 ± 26.64
